# Experimental data taken from US12503475B2 (Centessa Pharmaceuticals (UK) Limited, priority 2020, dated 2025).
# Like-named read-outs stand apart in the source and are kept apart here.
# Target: T1, human orexin type 2 receptor (hOX2R) (Homo sapiens, UniProt O43614)
# T1 construct: expressed in transfected cells
# T1 sequence (O43614 1-444): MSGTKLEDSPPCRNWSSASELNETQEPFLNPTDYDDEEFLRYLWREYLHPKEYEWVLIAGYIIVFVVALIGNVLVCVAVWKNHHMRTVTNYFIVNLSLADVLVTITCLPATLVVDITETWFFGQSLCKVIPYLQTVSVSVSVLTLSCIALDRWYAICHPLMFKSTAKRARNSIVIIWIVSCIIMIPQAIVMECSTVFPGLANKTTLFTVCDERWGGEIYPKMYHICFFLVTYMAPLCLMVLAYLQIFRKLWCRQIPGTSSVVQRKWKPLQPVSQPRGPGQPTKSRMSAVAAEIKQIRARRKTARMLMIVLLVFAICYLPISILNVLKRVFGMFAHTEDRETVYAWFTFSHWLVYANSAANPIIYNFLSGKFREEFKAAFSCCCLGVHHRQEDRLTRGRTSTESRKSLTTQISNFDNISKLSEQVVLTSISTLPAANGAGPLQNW
# Experiment: Measurement of orexin type 2 receptor agonist activity (FLIPR calcium fluorescence)
# Format: cell-based
# Settings: for EC50: read-out: hOx2 pEC50 (converted); for Emax: CHO, read-out: hOx2 Emax (%)
# Method in brief: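 Agonism was read as fluorescence in cells stably expressing human OX2R. E. is the response at 10 μM relative to orexin A as full agonist (100%).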
# [1] = CHO cells expressing hOX2R, FLIPR calcium fluorescence
Structure (SMILES),EC50 [1] [nM],Emax [1] [%],Emax [%]
"C[C@@H](CC#N)NC(=O)N1CC2(CC2)[C@H](NS(C)(=O)=O)[C@@H]1Cc1cccc(-c2ccccc2)c1F [Compound 318, (6S,7S)-N-((S)-1-cyanopropan-2-yl)-6-((2-fluoro-[1,1′-biphenyl]-3-yl)methyl)-7-(methylsulfonamido)-5-azaspiro[2.4]heptane-5-carboxamide]",1 to 10,90 to 100,
"O=C([C@H](O)CF)N1CC2(CC2)[C@H](NS(=O)(=O)C(F)F)[C@@H]1Cc1cc(F)cc(-c2ccccc2)c1F [Compound 390, N-((6S,7S)-6-((2,5-difluoro-[1,1′-biphenyl]-3-yl)methyl)-5-((S)-3-fluoro-2-hydroxypropanoyl)-5-azaspiro[2.4]heptan-7-yl)-1,1-difluoromethanesulfonamide]",1 to 10,90 to 100,
"O=C([C@H]1CCO1)N1CC2(CC2)[C@H](NS(=O)(=O)C(F)(F)F)[C@@H]1Cc1cccc(-c2ccccc2)c1F [Compound 167, 1,1,1-trifluoro-N-((6S,7S)-6-((2-fluoro-[1,1′-biphenyl]-3-yl)methyl)-5-((R)-oxetane-2-carbonyl)-5-azaspiro[2.4]heptan-7-yl)methanesulfonamide]",10 to 100,80 to 90,
"CS(=O)(=O)N[C@@H]1[C@H](Cc2cccc(-c3ccccc3)c2)N(C(=O)[C@H](O)C(F)F)CC12CC2 [Compound 70, N-((6S,7S)-6-([1,1′-biphenyl]-3-ylmethyl)-5-((S)-3,3-difluoro-2-hydroxypropanoyl)-5-azaspiro[2.4]heptan-7-yl)methanesulfonamide]",1 to 10,90 to 100,
"COCCNC(=O)N1CC2(CC2)[C@H](NS(C)(=O)=O)[C@@H]1Cc1cccc(-c2ccccc2)c1F [Compound 311, (6S,7S)-6-((2-fluoro-[1,1′-biphenyl]-3-yl)methyl)-N-(2-methoxyethyl)-7-(methylsulfonamido)-5-azaspiro[2.4]heptane-5-carboxamide]",1 to 10,90 to 100,
"O=C([C@H]1CCO1)N1CC2(CC2)[C@H](NS(=O)(=O)C2(F)CC2)[C@@H]1Cc1cccc(-c2ccccc2)c1F [Compound 420, 1-fluoro-N-((6S,7S)-6-((2-fluoro-[1,1′-biphenyl]-3-yl)methyl)-5-((R)-oxetane-2-carbonyl)-5-azaspiro[2.4]heptan-7-yl)cyclopropane-1-sulfonamide]",0.0794 to 1,90 to 100,
"O=C([C@H](O)CF)N1CC2(CC2)[C@H](NS(=O)(=O)CF)[C@@H]1Cc1cccc(-c2cc(F)cc(F)c2)c1F [Compound 391, 1-fluoro-N-((6S,7S)-5-((S)-3-fluoro-2-hydroxypropanoyl)-6-((2,3′,5′-trifluoro-[1,1′-biphenyl]-3-yl)methyl)-5-azaspiro[2.4]heptan-7-yl)methanesulfonamide]",0.0794 to 1,90 to 100,
"O=C(NCC1(F)CC1)N1CC2(CC2)[C@H](NS(=O)(=O)CF)[C@@H]1Cc1cc(F)cc(-c2cc(F)cc(F)c2)c1F [Compound 415, (6S,7S)-N-((1-fluorocyclopropyl)methyl)-7-((fluoromethyl)sulfonamido)-6-((2,3′,5,5′-tetrafluoro-[1,1′-biphenyl]-3-yl)methyl)-5-azaspiro[2.4]heptane-5-carboxamide]",1 to 10,90 to 100,
"C[C@@H](C#N)C(=O)N1CC2(CC2)[C@H](NS(C)(=O)=O)[C@@H]1Cc1cccc(-c2ccccc2)c1 [Compound 309, N-((6S,7S)-6-([1,1′-biphenyl]-3-ylmethyl)-5-((S)-2-cyanopropanoyl)-5-azaspiro[2.4]heptan-7-yl)methanesulfonamide]",10 to 100,90 to 100,
"C[C@H](F)C(=O)N1CC2(CC2)[C@H](NS(=O)(=O)C(F)F)[C@@H]1Cc1cccc(-c2ccccc2)c1F [Compound 160, 1,1-difluoro-N-((6S,7S)-6-((2-fluoro-[1,1′-biphenyl]-3-yl)methyl)-5-((S)-2-fluoropropanoyl)-5-azaspiro[2.4]heptan-7-yl)methanesulfonamide]",0.0794 to 1,90 to 100,
"COC[C@H](C)NC(=O)N1CC2(CC2)[C@H](NS(C)(=O)=O)[C@@H]1Cc1cccc(-c2ccccc2)c1F [Compound 328, (6S,7S)-6-((2-fluoro-[1,1′-biphenyl]-3-yl)methyl)-N-((S)-1-methoxypropan-2-yl)-7-(methylsulfonamido)-5-azaspiro[2.4]heptane-5-carboxamide]",1 to 10,90 to 100,
"CC(C)C(=O)N1CC2(CC2)[C@@H](NS(C)(=O)=O)[C@H]1Cc1cccc(-c2ccccc2)c1 [Compound 16, N-((6R,7R)-6-([1,1′-biphenyl]-3-ylmethyl)-5-isobutyryl-5-azaspiro[2.4]heptan-7-yl)methanesulfonamide]",100 to 1000,50 to 60,
"CS(=O)(=O)N[C@@H]1[C@H](Cc2cccc(-c3ccccc3)c2F)N(C(=O)NCC(F)(F)F)CC12CC2 [Compound 99, (6S,7S)-6-((2-fluoro-[1,1′-biphenyl]-3-yl)methyl)-7-(methylsulfonamido)-N-(2,2,2-trifluoroethyl)-5-azaspiro[2.4]heptane-5-carboxamide]",1 to 10,,90 to 100
"CS(=O)(=O)N[C@@H]1[C@H](Cc2cccc(-c3ccccc3F)c2F)N(C(=O)[C@H]2CCO2)CC12CC2 [Compound 107, N-((6S,7S)-6-((2,2′-difluoro-[1,1′-biphenyl]-3-yl)methyl)-5-((R)-oxetane-2-carbonyl)-5-azaspiro[2.4]heptan-7-yl)methanesulfonamide]",1 to 10,90 to 100,
"C[C@H](F)S(=O)(=O)N[C@@H]1[C@H](Cc2cccc(-c3ccccc3)c2F)N(C(=O)[C@H]2CCO2)CC12CC2 [Compound 194, (R)-1-fluoro-N-((6S,7S)-6-((2-fluoro-[1,1′-biphenyl]-3-yl)methyl)-5-((R)-oxetane-2-carbonyl)-5-azaspiro[2.4]heptan-7-yl)ethane-1-sulfonamide]",1 to 10,90 to 100,
"N#C[C@@]1(C(=O)N2CC3(CC3)[C@H](NS(=O)(=O)CF)[C@@H]2Cc2cccc(-c3ccccc3)c2F)CCO1 (single isomer, unassigned) [Compound 225]",1 to 10,90 to 100,
O=C(NCC(F)F)N1CC2(CC2)[C@H](NS(=O)(=O)C(F)F)[C@@H]1Cc1cc(F)cc(-c2cc(F)cc(F)c2)c1F [Compound 387],1 to 10,90 to 100,
"CCNC(=O)N1CC2(CC2)C(NS(C)(=O)=O)C1Cc1cccc(-c2ccccc2)c1OC (racemic) [Compound 44, N-ethyl-6-((2-methoxy-[1,1′-biphenyl]-3-yl)methyl)-7-(methylsulfonamido)-5-azaspiro[2.4]heptane-5-carboxamide]",1 to 10,80 to 90,
"CS(=O)(=O)N[C@@H]1[C@H](Cc2cccc(-c3ccccc3)c2F)N(C(=O)NCC(F)F)CC12CC2 [Compound 112, (6S,7S)-N-(2,2-difluoroethyl)-6-((2-fluoro-[1,1′-biphenyl]-3-yl)methyl)-7-(methylsulfonamido)-5-azaspiro[2.4]heptane-5-carboxamide]",0.0794 to 1,90 to 100,
"COC[C@@H]1CCN1C(=O)N1CC2(CC2)[C@H](NS(C)(=O)=O)[C@@H]1Cc1cccc(-c2ccccc2)c1F [Compound 102, N-((6S,7S)-6-((2-fluoro-[1,1′-biphenyl]-3-yl)methyl)-5-((S)-2-(methoxymethyl)azetidine-1-carbonyl)-5-azaspiro[2.4]heptan-7-yl)methanesulfonamide]",1 to 10,90 to 100,
"CO[C@H]1CCN(C(=O)N2CC3(CC3)[C@H](NS(C)(=O)=O)[C@@H]2Cc2cccc(-c3ccccc3)c2F)C1 [Compound 313, N-((6S,7S)-6-((2-fluoro-[1,1′-biphenyl]-3-yl)methyl)-5-((S)-3-methoxypyrrolidine-1-carbonyl)-5-azaspiro[2.4]heptan-7-yl)methanesulfonamide]",10 to 100,90 to 100,
"O=C([C@H](O)CF)N1CC2(CC2)[C@H](NS(=O)(=O)CF)[C@@H]1Cc1cc(F)cc(-c2ccccc2)c1F [Compound 190, N-((6S,7S)-6-((2,5-difluoro-[1,1′-biphenyl]-3-yl)methyl)-5-((S)-3-fluoro-2-hydroxypropanoyl)-5-azaspiro[2.4]heptan-7-yl)-1-fluoromethanesulfonamide]",1 to 10,90 to 100,
"O=C(NCC(F)F)N1CC2(CC2)[C@H](NS(=O)(=O)C(F)F)[C@@H]1Cc1cc(F)cc(-c2ccccc2)c1F [Compound 389, (6S,7S)-6-((2,5-difluoro-[1,1′-biphenyl]-3-yl)methyl)-N-(2,2-difluoroethyl)-7-((difluoromethyl)sulfonamido)-5-azaspiro[2.4]heptane-5-carboxamide]",1 to 10,90 to 100,
"CS(=O)(=O)N[C@@H]1[C@H](Cc2cccc(-c3ccccc3)c2F)N(C(=O)C2(O)CCC2)CC12CC2 [Compound 68, N-((6S,7S)-6-((2-fluoro-[1,1′-biphenyl]-3-yl)methyl)-5-(1-hydroxycyclobutane-1-carbonyl)-5-azaspiro[2.4]heptan-7-yl)methanesulfonamide]",0.0794 to 1,90 to 100,
"CS(=O)(=O)N[C@H]1[C@@H](Cc2cccc(-c3ccccc3)c2F)N(C(=O)[C@H]2CCO2)CC12CC2 [Compound 22, N-((6R,7R)-6-((2-fluoro-[1,1′-biphenyl]-3-yl)methyl)-5-((R)-oxetane-2-carbonyl)-5-azaspiro[2.4]heptan-7-yl)methanesulfonamide]",100 to 1000,90 to 100,
